The values that follow come from US8796264B2, “2-piperazin-1-yl-4H-1,3-benzothiazin-4-one derivatives and their use for the treatment of mammalian infections” (Ecole Polytechnique Federale de Lausanne (EPFL), priority 2010, dated 2014).

One series has as its system M. smegmatis. In words: In vitro inhibitory activity, resazurin reduction assay (MIC99). Type of series: cell-based, Mycobacterium smegmatis. The conditions noted are these: Mycolicibacterium smegmatis, read-out: typical MIC values, M. smegmatis.
The subject of a further series is M. tuberculosis H37Rv. Description: In vitro inhibitory activity, resazurin reduction assay (MIC99). The settings on record: Mycobacterium tuberculosis, H37RV; resazurin reduction assay (MIC99); read-out: typical MIC values, M. tuberculosis H37Rv. The format is cell-based, Mycobacterium tuberculosis. On the technique in general: Resazurin is reduced to fluorescent resorufin, in cell work by metabolically active cells.

The subject of series [1] is Corynebacterium glutamicum ATCC13032. Description: In vitro inhibitory activity against actinobacteria (MIC). The settings on record: read-out: typical MIC values, Corynebacterium glutamicum ATCC13032. Type of series: cell-based.

Converted amounts (≈) assume the structure as drawn.

Regarding `CCCCN1CCN(c2nc(=O)c3cc(C(F)(F)F)cc([N+](=O)[O-])c3s2)CC1` [Compound 3, 2-(4-butylpiperazin-1-yl)-8-nitro-6-(trifluoromethyl)-4H-1,3-benzothiazin-4-one], the melting point (commonly the temperature of the solid-liquid transition) was in the range of 119 to 120 °C. Moreover, the MIC (as a rule, the lowest concentration that inhibits growth of the organism) with M. smegmatis was at most 170 ng/mL. The MIC in the series on M. tuberculosis H37Rv came out at 1.5 ng/mL (≈ 3.6 nM).
`O=c1nc(N2CCN(C3CCCCC3)CC2)sc2c([N+](=O)[O-])cc(C(F)(F)F)cc12` [Compound 1, 2-(4-cyclonexylpiperazin-1-yl)-8-nitro-6-(trifluoromethyl)-4H-1,3-benzothiazin-4-one] registered a melting point of 189 to 191 °C. For the same compound, in the series on M. smegmatis, the minimum inhibitory concentration (MIC) is at most 170 ng/mL. For the same compound, the MIC in the series on M. tuberculosis H37Rv was determined as 0.75 ng/mL (≈ 1.7 nM).
In turn, `O=c1nc(N2CCN(CCCOc3ccc(F)cc3)CC2)sc2c([N+](=O)[O-])cc(Cl)cc12` [Compound 20, 6-chloro-2-{4-[3-(4-fluorophenoxy)propyl]piperazin-1-yl}-8-nitro-4H-1,3-benzothiazin-4-one] returned a melting point of 192 to 194 °C. Moreover, in the series on M. smegmatis, the MIC is at most 1.9 ng/mL. Also, the MIC in series [1] worked out at 3.1 ng/mL (≈ 6.47 nM). Besides, in the series on M. tuberculosis H37Rv, the minimal inhibitory concentration (MIC) is at most 1.9 ng/mL.
Take `CCCCCN1CCN(c2nc(=O)c3cc(C(F)(F)F)cc([N+](=O)[O-])c3s2)CC1` [Compound 12]: the melting point is 133 to 134 °C. Besides, the MIC in the series on M. smegmatis is at most 1.9 ng/mL. The MIC in series [1] worked out at 15 ng/mL (≈ 34.8 nM). Further, in the series on M. tuberculosis H37Rv, the MIC stood at 0.37 ng/mL (≈ 0.86 nM).
For the compound `O=c1nc(N2CCN(CCCCOc3ccccc3)CC2)sc2c([N+](=O)[O-])cc(C(F)(F)F)cc12` [Compound 10, 8-nitro-2-[4-(4-phenoxybutyl)piperazin-1-yl]-6-(trifluoromethyl)-4H-1,3-benzothiazin-4-one], the melting point is 256 to 258 °C. For the same compound, in the series on M. smegmatis, the MIC was at most 1.9 ng/mL. Further, in series [1], the MIC was at most 1.9 ng/mL. Besides, the MIC with M. tuberculosis H37Rv came to 1.5 ng/mL (≈ 2.95 nM).
For the compound `COCCCN1CCN(c2nc(=O)c3cc(C(F)(F)F)cc([N+](=O)[O-])c3s2)CC1` [Compound 11, 2-[4-(3-methoxypropyl)piperazin-1-yl]-8-nitro-6-(trifluoromethyl)-4H-1,3-benzothiazin-4-one], the melting point lay within 133 to 134 °C. Further, the MIC in the series with M. smegmatis was found to be 31 ng/mL (≈ 71.7 nM). Further, the MIC in series [1] was 250 ng/mL (≈ 578 nM). Further, the MIC in the series with M. tuberculosis H37Rv came out at 3.75 ng/mL (≈ 8.67 nM).
On the same counts, the results for `CCC(CC)N1CCN(c2nc(=O)c3cc(C(F)(F)F)cc([N+](=O)[O-])c3s2)CC1` [Compound 13, 2-[4-(1-ethylpropyl)piperazin-1-yl]-8-nitro-6-(trifluoromethyl)-4H-1,3-benzothiazin-4-one] are 152 to 153 °C, at most 1.9 ng/mL, at most 1.9 ng/mL and 0.37 ng/mL (≈ 0.86 nM).
On the same counts, the results for `O=c1nc(N2CCN(Cc3ccncc3)CC2)sc2c([N+](=O)[O-])cc(C(F)(F)F)cc12` [Compound 9, 8-nitro-2-[4-(pyridin-4-ylmethyl)piperazin-1-yl]-6-(trifluoromethyl)-4H-1,3-benzothiazin-4-one] are 200 to 202 °C, 62 ng/mL (≈ 137 nM), 125 ng/mL (≈ 277 nM) and 15 ng/mL (≈ 33.2 nM).
In turn, `O=c1nc(N2CCN(C34CC5CC(CC(C5)C3)C4)CC2)sc2c([N+](=O)[O-])cc(C(F)(F)F)cc12` [Compound 15, 2-[4-(1-adamantyl)piperazin-1-yl]-8-nitro-6-(trifluoromethyl)-4H-1,3-benzothiazin-4-one] yielded a melting point of 236 to 238 °C. In addition, the MIC in the series with M. smegmatis came out at 62 ng/mL (≈ 125 nM). The MIC in series [1] is under 500 ng/mL. Further, in the series on M. tuberculosis H37Rv, the MIC turned out to be 15 ng/mL (≈ 30.3 nM).
On the same counts, the results for `O=c1nc(N2CCN(CCC3CCCCC3)CC2)sc2c([N+](=O)[O-])cc(C(F)(F)F)cc12` [Compound 6, 2-[4-(2-cyclohexylethyl)piperazin-1-yl]-8-nitro-6-(trifluoromethyl)-4H-1,3-benzothiazin-4-one] are 175 to 177 °C, at most 1.9 ng/mL, 125 ng/mL (≈ 266 nM) and at most 0.19 ng/mL.
